Read-outs that look alike come from different tables or passages of the source.
Tests used:
[1] = Example 7: safety of single 400 mg dose of Compound 1; format: in vivo, human; conditions: single oral dose, Japanese male healthy volunteers
Experimental: The subjects were admitted to the medical institution in the afternoon on the day before administration (“Day −1”). […] The subjects were discharged the day after administration (“Day 2”). Thus, the subjects were hospitalized for a total of three days. Follow up assessment for safety was performed 6 to 8 days after administration (“Days 7 to 9”).

[2] = human, in vivo
Experimental: Safety, tolerability, pharmacokinetics, and efficacy were monitored through Day 21 after dosing. The active treatments in the 5 cohorts were as follows: […] The duration of the study was 21 days, with 10 days of treatment and 11 days of follow-up. […] Matching placebo was administered orally under fed conditions. For Cohort 5 only, 100 mg RTV capsules were coadministered orally under fed conditions. […] Pharmacokinetics: The pharmacokinetic parameters of Compound 1 in plasma and peripheral blood mononuclear cells were summarized using descriptive statistics.

[3] = in vivo
Experimental: Pharmacokinetic (PK) blood draws were performed on days 7, 17, and 27.

[4] = Example 1: multiple-dose safety of Compound 1 alone and with RTV; format: in vivo, human
Experimental: The single-dose and multiple-dose pharmacokinetics of Compound 1 were also determined. The multiple-dose safety of Compound 1 administered alone and with RTV was also determined. Safety: Safety was evaluated by assessment of clinical laboratory tests at baseline and at various time points during the study; periodic physical examinations, including vital signs; and documentation of adverse events throughout the study. Safety: No statistical inference was performed for safety data in this pharmacokinetic study.

[5] = human, in vivo; remark: listed apart in the source
Experimental: Safety, tolerability, pharmacokinetics, and efficacy were monitored through Day 21 after dosing. The active treatments in the 5 cohorts were as follows: […] Safety: Adverse events, vital signs, electrocardiogram, ophthalmologic examination, and clinical laboratory tests were evaluated for safety. Safety: The proportion of subjects with adverse events was summarized by treatment, system organ class and preferred term for treatment-emergent adverse events, treatment-related adverse events, serious adverse events, and adverse events leading to study drug discontinuation. Adverse events were coded using the Medical Dictionary for Regulatory Activities (MedDRA®) version 8.1. […] Laboratory results were expressed on the original measurement scale and in terms of the toxicity grade. Changes from baseline in quantitative laboratory tests were summarized by visit.

[6] = Example 4: safety of FTC/TDF and Compound 1/r; format: in vivo, human; conditions: Compound 1/r and their co-administration
[7] = tested on: HIV-1; experiment: Example 2: antiviral activity (HIV-1 RNA reduction) and exposure-response in subjects infected with HIV-1; format: in vivo, human
Experimental: At screening, subjects were to have a plasma HIV-1 RNA load of ≧10,000 to ≦300,000 copies/mL and a CD4+ cell count of ≧200 cells/mm^3.
Safety, tolerability, pharmacokinetics, and efficacy were monitored through Day 21 after dosing. […] The placebo group in Cohort 5 also received 100 mg of RTV.
The duration of the study was 21 days, with 10 days of treatment and 11 days of follow-up. […] Matching placebo was administered orally under fed conditions. For Cohort 5 only, 100 mg RTV capsules were coadministered orally under fed conditions.
Efficacy: The primary efficacy endpoint was the maximum HIV-1 RNA reduction (log10 copies/mL) from baseline through Day 11. The maximum reduction for an individual subject was the maximum drop among changes from baseline between Days 2 and 11.
The 2 subjects who received placebo+100 mg RTV were treated as a separate group. HIV-1 RNA values below the detection limit (50 copies/mL) were entered as 49 copies/mL.

[8] = Example 5: pharmacokinetic drug-drug interaction of zidovudine and Compound 1/r; format: in vivo, human; conditions: for AUCtau, Cmax, Ctau (Compound 1 only) 90% CI of GMR (co-administration:alone): Compound 1/r 200/100 mg QD plus ZDV 300 mg BID, with a meal, bounds 70% to 143%
Text: Zidovudine is a NRTI used in HIV patients.

[9] = Example 3: Compound 1 pharmacokinetics at a range of RTV doses; format: in vivo, human; conditions: Compound 1 125 mg QD + 200 mg RTV; mean
Experimental: (§1) The effects of a range of RTV doses (20, 50, 100, and 200 mg once daily) on hepatic cytochrome P450 3A (CYP3A) activity were also evaluated using a CYP3A substrate.
(§2) A randomized, open label, single-center, multiple-dose, two group, Phase 1 study was conducted (24 subjects (16 evaluable) subjects in two groups; 12 (8 evaluable) in each group) with an approximately even distribution of healthy male and non-pregnant, non-lactating female subjects aged between 18-45, inclusive
(§3) The population mean slope was estimated along with a corresponding 90% CI. This study was performed in compliance with the guidelines of Good Clinical Practices (GCPs).

[10] = Example 1: plasma pharmacokinetics of Compound 1 alone and coadministered with RTV in healthy subjects; format: in vivo, human; conditions: 100 mg
Text: The study was an open-label, fixed-sequence, crossover, pharmacokinetic study with 12 subjects. The subjects were healthy males and non-pregnant, nonlactating females between 18 and 45 years of age, inclusive. The duration of the study was 20 days, with Period 1 of Days 1 to 10 and Period 2 of days 11 to 20. Follow-up contact was on day 27.

[11] = Example 7: effect of food on pharmacokinetics of Compound 1 in Japanese male healthy volunteers; format: in vivo, human; conditions: 400 mg
Experimental: Subjects in the 400 mg fasted cohort received an additional 400 mg dose with breakfast after a washout period (generally a minimum of ten days after the initial administration). The interval of ten days between the two doses was considered appropriate for eliminating any within subject carryover effects. […] Doses were administered at similar times for each subject in each treatment period. […] Plasma samples were isolated from healthy subjects administered with Compound 1. The plasma samples were extracted by solid phase extraction using Empore™ Disk Plate (C8SD), and then measured by high-performance liquid chromatography/tandem mass spectrometry (LC/MS/MS) (HPLC model 2795 separations module from Waters; mass spectrometer model API4000 from MDS SCIEX). Ionization and detection were performed with electrospray ionization and positive ion detection with multiple reaction monitoring, respectively. […] To 50 μL of plasma samples spiked with […] each of 90% acetonitrile and 20 mmol/L ammonium formate-formic acid buffer (pH 3.0)/acetonitrile (10:90, v/v), 10 μL each of internal standard solution was added. To these samples, 200 μL of 0.1% formic acid in 10% acetonitrile was added. These solutions were then mixed for 10 seconds and centrifuged at 10,000 rpm for 5 minutes at 4° C. […] Then, 10 μL of each solution was injected into the LC/MS/MS system and analyzed.

[12] = tested on: hepatic cytochrome P450 3A (CYP3A) activity; experiment: Example 3: IV midazolam (MDZ) pharmacokinetics as probe for CYP3A activity at a range of RTV doses; conditions: for AUCinf: MDZ 1 mg IV, mean
Experimental: as §1, §2
For MDZ: AUC0-last, AUCinf, % AUCexp, Clast, Tlast, λz, T1/2, CL and Vz.
as §3

[13] = Example 3: RTV pharmacokinetics when dosed with Compound 1; format: in vivo, human; conditions: RTV 100 mg QD with Compound 1; mean (CV %)
Experimental: as §1, §2, §3

[14] = after administration of Compound 1+RTV

With `COc1cc2c(cc1Cc1cccc(Cl)c1F)c(=O)c(C(=O)O)cn2[C@H](CO)C(C)C` [Compound 1, 6-(3-chloro-2-fluorobenzyl)-1-[(2S)-1-hydroxy-3-methylbutan-2-yl]-7-methoxy-4-oxo-1,4-dihydroquinoline-3-carboxylic acid] as the compound, how does the “electrocardiogram (ECG) changes” value [1] read?
Its value is “No clinically significant electrocardiogram (ECG) changes were noted”.

And the safety and tolerability [1]?
The safety and tolerability was “safe and well tolerated with no serious adverse events”.

What about the enhancement of exposure [2] of the same compound?
Its enhancement of exposure is 10 to 16 fold.

What about the “PK (Cmax, AUCtau, Ctau) during co-administration versus alone” value [3] of the same compound?
Its value is “unaffected”.

What about the serious adverse events ([4]; Compound 1 alone and Compound 1+RTV, whole study) of the same compound?
The serious adverse events was “No serious adverse events occurred”.

And the “subjects with treatment-emergent AEs considered related to study drugs” value [4, 14]?
The value was 5 of 12 subjects.

And the “treatment-related AEs reported in more than one subject” value [4, 14]?
Its value is “nausea (three subjects), vomiting (two subjects), headache (two subjects), and pruritus (two subjects)”.

And the “subjects with treatment-emergent AEs considered related to study drugs” value ([4]; after administration of Compound 1 alone)?
The value was 2 of 12 subjects.

And the tolerability ([4]; concurrent oral Compound 1 100 mg twice daily and RTV 100 mg twice daily for up to 10 days)?
The tolerability was “generally well-tolerated”.

What about the “subjects experiencing nausea (most frequent treatment-emergent AE)” value ([4]; during administration of Compound 1+RTV) of the same compound?
The value was 4 subjects.

What about the “subjects with treatment-emergent adverse events” value ([4]; during administration of Compound 1+RTV, each 100 mg twice daily) of the same compound?
The value was 7 of 12 subjects.

And the “subjects with treatment-emergent adverse events” value ([4]; during administration of Compound 1 alone, 100 mg twice daily)?
The value was 4 of 12 subjects.

And the tolerability ([4]; oral Compound 1 100 mg twice daily for up to 20 days)?
The tolerability was “well tolerated”.

And the “changes in hematology and urinalysis findings, vital signs, body weight, electrocardiogram and ophthalmic examinations” value [5]?
The value was “No clinically relevant changes”.

And the “dose interruptions, discontinuations, or serious adverse events” value [5]?
Its value is “no dose interruptions, discontinuations, or serious adverse events”.

What about the tolerability [5] of the same compound?
Its tolerability is “generally well tolerated”.

And the “serious adverse events or discontinuations due to AEs” value [6]?
Its value is “no serious adverse events”.

And the “Emax (reduction from baseline, simple Emax model)” value ([7]; Compound 1 Ctau versus HIV-1 RNA reduction)?
Its value is 2.32 log10 copies/mL.

What about the “HIV-1 RNA levels compared with placebo” value ([7]; all dose levels, 10 consecutive days) of the same compound?
The value was “significantly reduced HIV-1 RNA levels”.

What about the Half-life ([8]; human, in vivo) of the same compound?
Its Half-life is “supporting once daily dosing”.

What about the AUCtau [9] of the same compound?
Its AUCtau is 20600 ng·h/mL.

What about the “mean steady-state systemic exposure (AUCtau, Day 10) lower compared with mean exposure (AUCinf) after a single dose (Day 1)” value ([10]; Compound 1 alone, indicating autoinduction) of the same compound?
Its value is “approximately 20%”.

What about the AUC ([10]; both sexes, human, plasma, po) of the same compound?
Its AUC is 908 ng·h/mL.

What about the “AUC0-inf higher in the fed state compared to the fasted state” value [11] of the same compound?
The value was 2.69 fold.

What about the “Cmax higher in the fed state compared to the fasted state” value [11] of the same compound?
The value was 3.30 fold.

For `Cc1cn([C@H]2C[C@H](N=[N+]=[N-])[C@@H](CO[C@@H]3O[C@H](C(=O)O)[C@@H](O)[C@H](O)[C@H]3O)O2)c(=O)[nH]c1=O` [G-ZDV], which “AUCtau, Cmax, Ctau (Compound 1 only) 90% CI of GMR (co-administration:alone)” value [8] is on record?
Its value is “within predefined PK equivalence bounds”.

For `Cc1ncc2n1-c1ccc(Cl)cc1C(c1ccccc1F)=NC2` [MDZ, midazolam], which AUCinf ([12]; +20 mg RTV QD with Compound 1 125 mg) is on record?
The AUCinf was 101 ng·h/mL.

And the AUCinf ([12]; +50 mg RTV QD with Compound 1 125 mg)?
Its AUCinf is 145 ng·h/mL.

What about the AUCinf ([12]; +100 mg RTV QD with Compound 1 125 mg) of the same compound?
Its AUCinf is 219 ng·h/mL.

What about the AUCinf ([12]; +200 mg RTV QD with Compound 1 125 mg) of the same compound?
The AUCinf was 146 ng·h/mL.

And the AUCinf ([12]; MDZ alone (Day 1))?
The AUCinf was 31.0 ng·h/mL.

And the CL ([12]; MDZ +20 mg RTV)?
Its CL is 2.38 mL/min/kg.

And the Clast ([12]; MDZ +20 mg RTV)?
Its Clast is 1.53 ng/mL.

And the Half-life ([12]; MDZ +20 mg RTV)?
Its Half-life is 7.83 h.

What about the CL ([12]; MDZ +50 mg RTV) of the same compound?
Its CL is 1.5 mL/min/kg.

What about the Clast ([12]; MDZ +50 mg RTV) of the same compound?
Its Clast is 2.51 ng/mL.

And the Half-life ([12]; MDZ +50 mg RTV)?
The Half-life was 14.4 h.

And the CL ([12]; MDZ +100 mg RTV)?
Its CL is 1.2 mL/min/kg.

And the Clast ([12]; MDZ +100 mg RTV)?
The Clast was 3.34 ng/mL.

And the Half-life ([12]; MDZ +100 mg RTV)?
Its Half-life is 22.4 h.

And the CL ([12]; MDZ +200 mg RTV)?
The CL was 1.45 mL/min/kg.

What about the Clast ([12]; MDZ +200 mg RTV) of the same compound?
The Clast was 2.58 ng/mL.

And the Half-life ([12]; MDZ +200 mg RTV)?
Its Half-life is 15.2 h.

What about the CL ([12]; MDZ alone) of the same compound?
The CL was 7.45 mL/min/kg.

What about the Clast ([12]; MDZ alone) of the same compound?
The Clast was 0.20 ng/mL.

What about the Half-life ([12]; MDZ alone) of the same compound?
The Half-life was 3.97 h.

With `CC(C)c1nc(CN(C)C(=O)N[C@H](C(=O)N[C@@H](Cc2ccccc2)C[C@H](O)[C@H](Cc2ccccc2)NC(=O)OCc2cncs2)C(C)C)cs1` [Ritonavir, (2S,3S,5S)-5-(N—(N—((N-Methyl-N-((2-isopropyl-4-thiazolyl)methyl)amino)-carbonyl)-L-valinyl)amino)-2-(N-((5-thiazolyl)methoxycarbonyl)amino)-1,6-diphenyl-3-hydroxyhexane] as the compound, how does the Half-life [13] read?
Its Half-life is 6.34 (18.4) hr.

For `Cc1cn([C@H]2C[C@H](N=[N+]=[N-])[C@@H](CO)O2)c(=O)[nH]c1=O` [ZDV, zidovudine, reference compound], which “AUCtau, Cmax, Ctau (Compound 1 only) 90% CI of GMR (co-administration:alone)” value [8] is on record?
The value was “within predefined PK equivalence bounds”.

Reference: patent US20090233964A1, “METHODS FOR IMPROVING THE PHARMACOKINETICS OF HIV INTEGRASE INHIBITORS” (priority 2005, published 2009)
